# Source: US6413970B1, “Pharmaceutical composition for treating viral diseases” (UCB S.A., priority 1996, dated 2002)
# Structures can show the parent of a compound that is named as a salt.
# Columns and labels:
# Assay type in all cases: cell-based
# [1] = tested on: ongoing IL-8 release induced by RSV, human PMN; assay: Ongoing IL-8 release induced by RSV in human PMN, delayed cetirizine addition, ELISA
# Method: (§1) Human granulocytes were isolated from 200 ml of heparinized blood (15 U ml) from healthy donors separated on a Ficoll-metrizoate gradient followed by dextran sedimentation and washed twice at 300 g. This method led to more than 95% pure PMN. The cells were diluted to a final density of 1×10^6 PMN.
# (§2) Virus preparation was performed as described by R. ARNOLD et al. in Immunology 82, 126-133 (1994). For crude preparation, respiratory syncytial virus (RSV), Long Stain (ATCC), was grown and titrated in HEP-2 cells. The RSV titre was determined in a plaque-forming unit (PFU) assay. The stock titre of the virus pool used in the study was 5×10^6 PFU/ml. The stock solution was stored at −70° C. until use. Interleukin-8 (IL-8) levels were under the detection limit in the stock solution, as analysed by enzyme-linked immuno sorbent assay (ELISA). The absence of mycoplasma infection was verified by microplasma-specific PCR. […]
# (§3) PMN were suspended in RPMI medium at a concentration of 1×10^6/ml. […] Culture supernatants were collected and analyzed for their IL-8 content. IL-8 release was determined using a sandwich ELISA according to the method indicated hereinbefore. […] After addition of p-nitrophenylphosphate (15 mg/ml) for quantification, an ELISA reader and for calculation Mikrotek software (SLT Labinstruments, Crailsheim, Germany) were used. […]
# [2] = tested on: RSV-induced IL-8 release from human PMN; assay: RSV-induced IL-8 release from human PMN, ELISA
# Method: as §1, §2, §3
# [3] = tested on: respiratory syncytial virus (RSV); assay: RSV-specific mRNA (SH gene) expression in RSV-treated human PMN, RT-PCR; conditions: human PMN 1×10^6/ml, RSV 1 m.o.i., cetirizine 100-, 0.1-, 0.01 μg/10^6 PMN, 2 hours and 16 hours at 37° C., FIG. 2
# Method: as §1, §2
# The analysis of RSV-specific genomic RNA was performed by coupled reverse transcription and polymerase chain reaction PCR detection of RSV-genomic-RNA encoding for the small hydrophobic protein (SH) of RSV as described previously by R. ARNOLD et al. in Immunology 82, 126-133 (1994). […] Expression of genomic RSVSH RNA was analysed after reverse transcription with sense primers and PCR amplification of the cDNA transcripts. […]
structure (smiles),measurement,setting,value
"O=C(O)COCCN1CCN(C(c2ccccc2)c2ccc(Cl)cc2)CC1 (racemic) [cetirizine dihydrochloride, 2-[2-[4-[(4-chlorophenyl)phenylmethyl]-1-piperazinyl]ethoxy]-acetic acid]","Down regulation of RSV-induced IL-8 release, concentration range of strongest effect","[1]; cetirizine concentrations >0.01 μg/ml and <10 μg/ml, strongest when added at the onset of RSV treatment",most pronounced
same,ongoing IL-8 release by RSV,"[1]; human PMN 1×10^6/ml, RSV 1 m.o.i., cetirizine 100 μg, 10 μg, 0.01 μg added immediately, 30, 60 or 90 minutes after onset of RSV treatment, total 2 hours at 37° C., FIG. 4A-D",down regulates an ongoing IL-8 release by RSV
same,RSV-induced IL-8 release at the stated concentration range,"[2]; cetirizine at concentrations <0.01 μg/ml but >100 μg/ml (so in the source), similar after incubation up to 24 hours and RSV up to 5 m.o.i.",significant reduction in RSV-induced IL-8 release
same,RSV-induced IL-8 release,"[2]; human PMN 1×10^6/ml, total incubation 2 hours at 37° C., cetirizine 100-0.01 μg/ml, dose-dependent, 8 independent experiments, FIG. 3",down-regulated the RSV-induced IL-8 release
same,RSV-specific mRNA expression of the small hydrophobic (SH) gene,[3],inhibits RSV-specific mRNA expression
